Measurements published in US6589988B1, “Pharmaceutical composition with antitumor activity on the basis of carboplatin” (Pliva-Lachema, a.s., priority 1998, dated 2003).

Legend:
Assay type in all cases: physicochemical
[1] = Decomposition rates of carboplatin calculated from equation /1-7/ (Arrhenius evaluation); details: for calculated decomposition rate of carboplatin (r) / rate increase: 25° C.; for calculated decomposition rate of carboplatin (r): from equation /1-7/
Procedure: After evaluation of Arrhenius equation, the activation energy EA was calculated:
For the reference temperature of 35° C., at which the best determination coefficient has been obtained (R^2=0.99), the following dependence of the decomposition rate of carboplatin on the concentration of the present 1,1-cyclobutanedicarboxylic acid and on the temperature may be obtained from the equations /1-5/ and /1-6/: [formula]
wherein r is expressed in mol·m^−3·s^−1 and CCBDCA is expressed in mol·m^−3.
Based on the equation /1-7/, it is possible to calculate decomposition rates of carboplatin at the temperature of 25° C. and for different concentrations of 1,1-cyclobutanedicarboxylic acid: […]

[2] = Decomposition rate of carboplatin in aqueous solution in dependence on the concentration of 1,1-cyclobutanedicarboxylic acid; details: 0.1 M phosphate buffer at 37° C. versus 1.4·10^−4M CBDCA-buffer at 40° C.
[3] = as above; details: for decomposition rate of carboplatin (r): carboplatin 10.0 mg·ml^−1
Procedure: The rate of hydrolysis of carboplatin to a monoaquacomplex of the formula (1) has been presumed to be of the first order in relation to carboplatin concentration and independent to water concentration: [formula]
Dependences on concentration according to equations /1-2/ and /1-3/ were evaluated by linear regression and the rate constant and/or the reaction rate of the carboplatin decomposition have been calculated.
Study of the decomposition rate of carboplatin in dependence on the concentration of 1,1-cyclobutanedicarboxylic acid.
Mean starting concentration of carboplatin was 10.0 mg·ml^−1. Starting concentrations of 1,1-cyclobutanedicarboxylic acid were 0.017, 0.129, 1.189 and 14.804 mg·ml^−1. The temperature and relative humidity during storage was 25° C./60% and 35° C./60%. The vials with samples were stored stopper upright.
The decrease of carboplatin content was calculated as a difference of carboplatin content between a reference and measured sample. The concentration data were evaluated according to equation /1-2/, whereby, due to a good linear relation, the data were evaluated by linear regression.

N.N.O=C([O-])C1(C(=O)[O-])CCC1.[Pt+2] [carboplatin, cis-diammin-1,1-cyclobutanedicarboxylatoplatinum(II) complex]
calculated decomposition rate of carboplatin (r) ([1]; CBDCA 0.005 mg/ml): 4.48·10^−9 mol·m^−3·s^−1
calculated decomposition rate of carboplatin (r) ([1]; CBDCA 0.150 mg/ml (as in Ribocarbol L)): 4.58·10^−9 mol·m^−3·s^−1
rate increase ([1]; CBDCA 0.150 mg/ml versus 0.005 mg/ml): 2.2%
calculated decomposition rate of carboplatin (r) ([1]; CBDCA 0.250 mg/ml (lower limit of EP 642 792)): 4.65·10^−9 mol·m^−3·s^−1
rate increase ([1]; CBDCA 0.250 mg/ml versus 0.005 mg/ml): 4%
activation energy EA of carboplatin decomposition ([1]; Arrhenius equation, from rates at 25 and 35° C.): 190 000 J·mol^−1
rate constant k, ratio [2]: approximately 200 times
increase of the decomposition rate of carboplatin ([3]; enhancement of temperature of 10° C.): approximately tenfold
decomposition rate of carboplatin (r) ([3]; storage 25° C./60% RH, CBDCA 0.017 mg·ml^−1): 4.0 · 10^−9 mol·m^−3·s^−1
decomposition rate of carboplatin (r) ([3]; storage 25° C./60% RH, CBDCA 0.129 mg·ml^−1): 4.0 · 10^−9 mol·m^−3·s^−1
decomposition rate of carboplatin (r) ([3]; storage 25° C./60% RH, CBDCA 1.189 mg·ml^−1): 9.4 · 10^−9 mol·m^−3·s^−1
decomposition rate of carboplatin (r) ([3]; storage 25° C./60% RH, CBDCA 14.804 mg·ml^−1): 2.2 · 10^−8 mol·m^−3·s^−1
decomposition rate of carboplatin (r) ([3]; storage 35° C./60% RH, CBDCA 0.017 mg·ml^−1): 4.9 · 10^−8 mol·m^−3·s^−1
decomposition rate of carboplatin (r) ([3]; storage 35° C./60% RH, CBDCA 0.129 mg·ml^−1): 5.1 · 10^−8 mol·m^−3·s^−1
decomposition rate of carboplatin (r) ([3]; storage 35° C./60% RH, CBDCA 1.189 mg·ml^−1): 7.3 · 10^−8 mol·m^−3·s^−1
decomposition rate of carboplatin (r) ([3]; storage 35° C./60% RH, CBDCA 14.804 mg·ml^−1): 1.7 · 10^−7 mol·m^−3·s^−1
